Assay results reported in ChEMBL document CHEMBL5233244, “Therapeutic potential of targeting α/β-Hydrolase domain-containing 6 (ABHD6)” (Eur J Med Chem, 2020).

Tests used:
[1] = target: T1, Monoacylglycerol lipase ABHD6 (Homo sapiens, UniProt Q9BV23); assay: Inhibition of human recombinant ABHD6
T1 sequence (Q9BV23 whole entry): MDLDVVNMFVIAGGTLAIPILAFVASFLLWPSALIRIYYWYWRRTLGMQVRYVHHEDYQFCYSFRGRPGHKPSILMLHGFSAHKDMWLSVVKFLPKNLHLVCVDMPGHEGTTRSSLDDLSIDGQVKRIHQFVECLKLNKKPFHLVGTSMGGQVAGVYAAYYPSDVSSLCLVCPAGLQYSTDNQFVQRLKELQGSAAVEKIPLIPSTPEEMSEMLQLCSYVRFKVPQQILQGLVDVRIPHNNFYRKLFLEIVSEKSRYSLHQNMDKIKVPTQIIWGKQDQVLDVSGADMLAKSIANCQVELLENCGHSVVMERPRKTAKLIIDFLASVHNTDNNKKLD

[2] = target: T2, Monoacylglycerol lipase ABHD6 (Mus musculus, UniProt Q8R2Y0); assay: Inhibition of ABHD6 in mouse brain membrane using HT-01 probe as substrate incubated for 30 mins by gel based competitive ABPP assay; type: cell membranes
T2 sequence (Q8R2Y0 whole entry): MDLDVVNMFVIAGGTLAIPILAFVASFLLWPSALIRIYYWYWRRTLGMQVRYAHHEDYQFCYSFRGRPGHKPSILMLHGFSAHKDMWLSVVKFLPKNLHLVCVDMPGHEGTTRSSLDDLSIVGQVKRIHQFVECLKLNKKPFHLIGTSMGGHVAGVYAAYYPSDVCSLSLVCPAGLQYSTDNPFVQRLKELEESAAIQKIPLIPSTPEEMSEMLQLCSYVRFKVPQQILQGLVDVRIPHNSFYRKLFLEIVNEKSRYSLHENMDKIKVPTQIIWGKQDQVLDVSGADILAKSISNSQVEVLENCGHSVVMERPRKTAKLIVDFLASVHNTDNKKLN

[3] = target: T3, Monoacylglycerol lipase ABHD6 (Mus musculus) (UniProt Q8R2Y0); assay: Inhibition of ABHD6 in mouse brain membrane using FP-biotin as substrate at 10 uM incubated for 1 hr by LC-MS based ABPP-MudPIT analysis; type: cell membranes
T3 sequence (whole entry): T2 sequence (Q8R2Y0 whole entry)

[4] = target: T2, Monoacylglycerol lipase ABHD6; assay: Inhibition of mouse ABHD6 expressed in COS-7 cells using 2-[3H]AG as substrate incubated for 30 mins by liquid scintillation analysis; type: cell-based
[5] = target: T4, Monoglyceride lipase (Mus musculus, UniProt O35678); assay: Inhibition of mouse MAGL expressed in COS-7 cells using 2-[3H]AG as substrate incubated for 30 mins by liquid scintillation analysis; type: cell-based
T4 sequence (O35678 whole entry): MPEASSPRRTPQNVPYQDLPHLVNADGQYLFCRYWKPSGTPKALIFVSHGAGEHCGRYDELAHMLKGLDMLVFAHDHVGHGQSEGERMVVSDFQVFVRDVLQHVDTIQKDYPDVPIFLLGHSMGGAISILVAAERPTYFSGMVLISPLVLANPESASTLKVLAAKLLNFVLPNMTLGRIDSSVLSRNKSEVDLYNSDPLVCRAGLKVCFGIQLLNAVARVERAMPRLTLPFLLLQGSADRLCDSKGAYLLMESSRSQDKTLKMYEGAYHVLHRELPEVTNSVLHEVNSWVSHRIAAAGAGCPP

[6] = target: T5, Fatty-acid amide hydrolase 1 (Mus musculus, UniProt O08914); assay: Inhibition of mouse FAAH expressed in COS-7 cells using [3H]AEA as substrate incubated for 30 mins by liquid scintillation analysis; type: cell-based
T5 sequence (O08914 whole entry): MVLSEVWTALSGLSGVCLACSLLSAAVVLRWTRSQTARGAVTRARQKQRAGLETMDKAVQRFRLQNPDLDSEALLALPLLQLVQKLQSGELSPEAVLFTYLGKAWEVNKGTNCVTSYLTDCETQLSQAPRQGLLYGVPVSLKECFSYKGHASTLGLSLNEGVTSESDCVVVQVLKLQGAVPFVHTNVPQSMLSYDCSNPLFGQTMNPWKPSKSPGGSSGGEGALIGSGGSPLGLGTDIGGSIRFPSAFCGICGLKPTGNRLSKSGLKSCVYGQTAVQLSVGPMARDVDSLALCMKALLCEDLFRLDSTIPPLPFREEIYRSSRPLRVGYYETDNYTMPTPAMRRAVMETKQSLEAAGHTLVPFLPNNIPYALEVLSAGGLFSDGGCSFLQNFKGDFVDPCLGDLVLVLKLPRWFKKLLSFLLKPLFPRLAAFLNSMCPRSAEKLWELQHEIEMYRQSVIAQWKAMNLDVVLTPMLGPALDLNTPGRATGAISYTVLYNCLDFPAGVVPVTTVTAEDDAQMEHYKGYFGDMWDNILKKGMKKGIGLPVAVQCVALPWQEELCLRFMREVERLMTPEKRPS

[7] = target: T3, Monoacylglycerol lipase ABHD6 (Mus musculus); assay: Inhibition of ABHD6 in mouse Primary neuron cells using 2-[3H]AG as substrate at 30 uM incubated for 30 mins by liquid scintillation analysis; type: cell-based
[8] = target: T6, Fatty-acid amide hydrolase 1 (Mus musculus) (UniProt O08914); assay: Inhibition of FAAH in mouse Primary neuron cells using [3H]AEA as substrate at 30 uM incubated for 30 mins by liquid scintillation analysis; type: cell-based
T6 sequence (whole entry): T5 sequence (O08914 whole entry)

[9] = target: T1, Monoacylglycerol lipase ABHD6; assay: Inhibition of ABHD6 (unknown origin)
[10] = target: T2, Monoacylglycerol lipase ABHD6; assay: Inhibition of ABHD6 in mouse brain membrane using FP-biotin as substrate incubated for 1 hr by LC-MS based ABPP-MudPIT analysis; type: cell membranes

C#CCO[C@@H]1CC[C@H](Cc2ccccc2)N(C(=O)n2ncc(C(O)(c3ccc(F)cc3)c3ccc(F)cc3)n2)C1
IC50 [1]: 0.0028 µM
IC50 [2]: 0.126 µM

CN(Cc1cccc(-c2ccncc2)c1)C(=O)Oc1ccc(-c2ccc(C(N)=O)cc2)cc1
inhibition [3]: 90%

CC/C=C\C/C=C\C/C=C\CCCCCCCC(=O)OCC1CO1 (stereo not given)
IC50 [4]: 0.8 µM
IC50 [5]: 270 µM
IC50 [6]: 0.9 µM

CCCCCC/C=C\CCCCCCCC(=O)OCC1CO1 (stereo not given)
IC50 [4]: 2.4 µM
IC50 [6]: 4 µM
inhibition [7]: 30%
inhibition [8]: 60%

CC(C)(C)OC(=O)N1CCN(C(=O)n2cc(-c3ccc(OC(F)(F)F)cc3)nn2)C(Cc2ccccc2)C1 (stereo not given)
IC50 [1]: 0.0036 µM
IC50 [2]: 0.079 µM

CC(C)(C)OC(=O)N1CCN(C(=O)n2cc(-c3ccc(OC(F)(F)F)cc3)nn2)C(c2ccccc2)C1 (stereo not given)
IC50 [2]: 0.02 µM

COC(=O)[C@]1(C)CC[C@]2(C)CC[C@]3(C)C4=CC=C5C(=CC(=O)C(O)=C5C)[C@]4(C)CC[C@@]3(C)[C@@H]2C1 [PRISTIMERIN]
IC50 [9]: 1.3 µM

CN(Cc1cccc(-c2ccccc2)c1)C(=O)Oc1ccc(-c2ccc(C(N)=O)cc2)cc1
IC50 [10]: 0.43 µM
